Results published in patent US8841349B2, “Stabilize compositions based on monoalkyl glycerol ethers and aromatic alcohols” (Air Liquide Sante (International), priority 2003, dated 2014).

Test system: mixed suspension (Group 5) of the four test microbe groups
Assay: Koko test (pack preservation, repeated inoculation challenge) of aqueous working solutions in Ringer's solution
Assay type: cell-based
Conditions: for Koko results: microbial growth of streaks, inoculation cycle 1: inoculation cycle 1; Ringer's solution as product; use concentration 0.5% for 1), 0.6% for 2), 2.0% for 3) and 4); for Koko results: microbial growth of streaks, inoculation cycle 2: inoculation cycle 2; Ringer's solution as product; use concentration 0.5% for 1), 0.6% for 2), 2.0% for 3) and 4); for Koko results: microbial growth of streaks, inoculation cycle 3: inoculation cycle 3; Ringer's solution as product; use concentration 0.5% for 1), 0.6% for 2), 2.0% for 3) and 4); for Koko results: microbial growth of streaks, inoculation cycle 4: inoculation cycle 4; Ringer's solution as product; use concentration 0.5% for 1), 0.6% for 2), 2.0% for 3) and 4); for Koko results: microbial growth of streaks, inoculation cycle 5: inoculation cycle 5; Ringer's solution as product; use concentration 0.5% for 1), 0.6% for 2), 2.0% for 3) and 4); for Koko results: microbial growth of streaks, inoculation cycle 6: inoculation cycle 6; Ringer's solution as product; use concentration 0.5% for 1), 0.6% for 2), 2.0% for 3) and 4)
Experimental: Unless expressly stated otherwise, all of the percentages are percentages by weight. Aqueous working solutions were investigated using Ringer's solution as product in the Koko test.
Using the described method, the effectiveness of chemical preservatives (stabilizer compositions) is tested with regard to the pack preservation for cosmetic formulations. For this purpose, the compositions to be investigated are added in varying concentrations to the unstabilized samples in various experimental batches. A continuous microbial burden is achieved by periodically inoculating the experimental batches. In parallel to the inoculation, streaks of each of the individual batches are in each case made immediately beforehand. Assessment is made by reference to the microbial growth of the streaks.
• CSA (casein peptone soya flour peptone agar) • SA (Sabouraud dextrose agar) • SA slant tube • CSA+TLSH (No. 4) • SA-TLSH (No. 10) • NaCl (physiological sodium chloride solution, […]) • TLSH (disinhibiting medium for bacteria=Tween 80+lecithin+saponin+histidine)
The test microbe used was the mixed suspension (Group 5) of the following four test microbe groups.
Cultivation of the Test Microbes • Bacteria: streaking using a sterile glass rod on CS agar • Yeasts: streaking using a sterile glass rod on SA agar • Fungi: Aspergillus niger is transferred to 4 SA slant tubes • Penicillium funiculosum is transferred to SA agar plates
All of the test microbes are incubated for one week at 25° C.±2° C. The test microbes are replaced at intervals of 3 to 4 months.
The bacteria are rinsed off with 5 ml of NaCl solution in each case, filtered through a glass funnel containing glass wool into a 100 ml measuring cylinder and made up to 100 ml with NaCl. The bacterial suspensions have a titre of about 10^9 CFU/ml.
Three Aspergillus niger slant tubes are each shaken with 3 ml of NaCl solution on a Heldolph stirrer and introduced through a glass funnel containing glass wool. The yeast Candida albicans is rinsed off with 5 ml of NaCl and likewise poured through the glass funnel. 5 ml of a Penicillium funiculosum suspension are added to this mixture and made up to 100 ml with NaCl. The fungal suspension has a titre of about 10^5-9 CFU/ml.
The inoculation solution actually used is prepared as described above (Groups 1 to 4). After rinsing off, these are mixed and then made up to 100 ml with NaCl.
The microbial suspension was transferred to sterile glass-stoppered bottles containing glass beads and shaken for 5 min at a shaking frequency (to-and-fro movement) of 200 units/min. The microbial content of the mixed suspension is 10^9 CFU/ml. The suspension should be used on the day of preparation, but can also be used after 24 hours upon storage in a refrigerator.
In separate batches, 25 g of the cosmetic to be tested are mixed in each case with the compositions to be investigated in varying concentrations. The growth control used in each case is an unstabilized product sample. The test batches are streaked onto CSA/TLSH and SA/TLSH once per week following thorough stirring using a sterile glass rod, the first streaking being carried out directly prior to reinoculation. All of the samples are inoculated with 0.1 ml of the respective microbial suspension and thoroughly stirred.
The microbial growth of the streaks is assessed after incubation for three days at 25° C.±2° C. To be on the safe side, negative streaks are observed for a further two days and reassessed. The stabilizing action of the individual product concentration is assessed in a semiqualitative method by means of the growth of the individual streaks.
The test is usually carried out over six inoculation cycles and terminated after massive growth on two occasions.
A composition is considered good if it exists under the laboratory conditions given above for a period of six weeks without microbial attack of the sample batches, i.e. even after the sixth inoculation, no microbial growth can be detected.

O=C([O-])CNCO.[Na+] [1), sodium hydroxymethyl-glycinate]
+Y: Koko results: microbial growth of streaks, inoculation cycle 1 | Koko results: microbial growth of streaks, inoculation cycle 2 | Koko results: microbial growth of streaks, inoculation cycle 3 | Koko results: microbial growth of streaks, inoculation cycle 4 | Koko results: microbial growth of streaks, inoculation cycle 5 | Koko results: microbial growth of streaks, inoculation cycle 6

CC1(C)C(=O)N(CO)C(=O)N1CO [2), dimethyldimethylolhydantoin]
++B: Koko results: microbial growth of streaks, inoculation cycle 2 | Koko results: microbial growth of streaks, inoculation cycle 3 | Koko results: microbial growth of streaks, inoculation cycle 4 | Koko results: microbial growth of streaks, inoculation cycle 5 | Koko results: microbial growth of streaks, inoculation cycle 6
+B: Koko results: microbial growth of streaks, inoculation cycle 1
